Results: PMC10518255, “A first-in-class pan-lysyl oxidase inhibitor impairs stromal remodeling and enhances gemcitabine response and survival in pancreatic cancer” (Nature Cancer, 2023)
Where “and” joins values, the source holds several entries; their conditions need not be identical. Identical values can stand only once.

Columns and labels:
[1] = tested on: lysyl oxidase family activity in conditioned medium from KPC CAFs; test: Amplex red enzymatic activity assay on cell-derived conditioned medium (Extended Data Fig. 3g); type: biochemical, mouse; set-up: Lysyl oxidase family activity in conditioned media: unit not given here; conditions: for Lysyl oxidase family activity in conditioned media: KPC CAF CM, replicates
Description: (§1) Cell-derived conditioned medium was prepared from KPC CAFs and CCs grown in phenol red-free DMEM with 0.1% FBS and 10 μM CuSO4 for 24 h. At collection, size filtration >10 kDa for 40× concentration and buffer exchange (1.2 M urea and 50 mM sodium borate buffer, pH 8.2) were performed and subsequently used for the Amplex red assay as previously described[59] using putrescine as a substrate. Three biological repeats were performed.
(§2) Data presented as mean values +/− SD. f. […] Data presented as mean values +/− SD. […] Data presented as mean values +/− SD. […] Data presented as mean values +/− SD. Ordinary one-way ANOVA for multiple comparison test performed. Source data

[2] = tested on: lysyl oxidase family activity in conditioned medium from KPC cancer cells; test: as above; type: biochemical, mouse; set-up: Lysyl oxidase family activity in conditioned media: unit not given here; conditions: for Lysyl oxidase family activity in conditioned media: KPC cancer cells CM, replicates
Description: as §1, §2

KPC CCs = test: Cancer cell invasion into CAF-remodeled 3D organotypic matrices; type: cell-based, mouse; conditions: for number of cancer cells invaded per FOV: single replicates
Description: Fig. 3 PXS-5505 inhibition of CAF remodeling in vitro. a, Quantitative PCR with reverse transcription (qRT–PCR) showing in vitro comparison of KPC CAF relative expression of lysyl oxidase family members compared to KPC CCs from the same model (n = 3 biologically independent samples). Comparisons were determined by 2^–∆∆Ct approach. b, Representative images of 3D organotypic matrix contraction assay at days 2, 6 and 12 in the absence (gray) or presence (pink) of PXS-5505 (30 µM). Scale bars, 5 mm. Comparison of measured area of matrices between control and PXS-5505 treatment groups over time (n = 3 technical samples examined over three biologically independent samples). Data are mean ± s.d. c, Concentration of immature divalent DHLNL and mature trivalent Pyr collagen crosslinks determined by LC–MS from control and PXS-5505-treated organotypic matrices at day 12 (n = 3 technical samples examined over two biologically independent samples). Data are mean ± s.d. […] Data are presented as mean ± s.d. […] Comparison of number of CCs invaded per field of view (FOV) as determined by H&E and PanCK staining (nine images taken from three technical samples from each of three biologically independent contracted matrices), normalized to control. Data are mean ± s.d. Scale bars, 100 μm. […] Source data
Following remodeling, 4 × 10^4 KPC CCs were seeded on top of the remodeled matrix in DMEM supplemented with 10% FBS and 1% penicillin–streptomycin and allowed to grow to confluence for 4 days, after which matrices were transferred to an air–liquid interface and CCs allowed to invade into the organotypic matrices for 12 days (Extended Data Fig. 4f). PXS-5505 (30 μM) or PXS-5120 (100 nM) was added to medium at 48-h intervals for the duration. At the end point, matrices were fixed in 10% formalin and processed for histological analysis by H&E and panCK staining. The invasive index was measured in three representative areas per matrix and the number of invaded cells per mm^2 was calculated. No statistical methods were used to predetermine sample sizes but our sample sizes are similar to those reported in previous publications[36],[39].
Extended Data Fig. 4 PXS-5505 inhibits collagen cross-linking by PDAC CAFs in vitro resulting in decreased cancer cell invasion. a. Schematic of organotypic matrix remodeling assay whereby CAFs are embedded into a 3D collagen matrix and growth media supplemented with or without PXS-5505 to inhibit lysyl oxidase family activity b. Chemical structures of lysyl oxidase family catalyzed hydroxyallysine or allysine residues and the subsequent divalent and trivalent bonds that are formed that can be quantified by mass spectrometry. c. Representative images of 3D organotypic matrix contraction by human pancreatic cancer CAFs at days 2, 6 and 12 in the absence (gray) and presence (pink) of PXS-5505 (30 µM). Scale bars = 5 mm. […] Data presented as mean values +/− SD. d. […] Data presented as mean values +/− SD. Relative fold expression of LOXL family members compared to LOX were determined by 2^–∆∆Ct approach. f. […] Comparison of measured area of matrices between control, PXS-5120 and PXS-5505 treatment groups (n = 3) over time. i. […] Representative images of invasion of KPC cancer cells into a contracted organotypic matrix as determined by H&E staining. […]

In the case of Cl.Cl.NC/C=C(\F)CS(=O)(=O)c1cccc2cccnc12.O [PXS-5505, (Z)-3-fluoro-4-(quinolin-8-ylsulfonyl)but-2-en-1-amine dihydrochloride monohydrate], the “Lysyl oxidase family activity in conditioned media” value ([1]; 1.5 nM PXS) is reported as 95.9609 and 94.079 and 81.6749, the “Lysyl oxidase family activity in conditioned media” value ([1]; 3 nM PXS) is reported as 109.447 and 108.981 and 81.5719 and the “Lysyl oxidase family activity in conditioned media” value ([1]; 15 nM PXS) is reported as 100.129 and 99.9799 and 74.1019. For the same compound, the “Lysyl oxidase family activity in conditioned media” value ([1]; 30 nM PXS) was 107.999 and 96.3316 and 79.5133, the “Lysyl oxidase family activity in conditioned media” value ([1]; 150 nM PXS) was 79.0426 and 71.3415 and 64.7518 and the “Lysyl oxidase family activity in conditioned media” value ([1]; 300 nM PXS) was 88.3802 and 67.0866 and 51.1694. For the same compound, the “Lysyl oxidase family activity in conditioned media” value ([1]; 1.5 uM PXS) was 45.307 and 27.142 and 15.754, the “Lysyl oxidase family activity in conditioned media” value ([1]; 3 uM PXS) was 31.4691 and 22.608 and 3.789 and the “Lysyl oxidase family activity in conditioned media” value ([1]; 15 uM PXS) was -3.917 and 9.401 and -5.483. For the same compound, the “Lysyl oxidase family activity in conditioned media” value ([1]; 30 uM PXS) was -4.091 and 9.102 and -4.018, the “inhibition of lysyl oxidase family activity in conditioned medium” value ([1]; KPC CAFs) was “inhibition of lysyl oxidase family activity” and the “inhibition of lysyl oxidase family activity in conditioned medium” value ([2]; KPC CCs) was “inhibition of lysyl oxidase family activity”. The “Lysyl oxidase family activity in conditioned media” value ([2]; 1.5 nM PXS) was 52.7404 and 147.39 and 87.9635, the “Lysyl oxidase family activity in conditioned media” value ([2]; 3 nM PXS) was 57.9047 and 143.925 and 88.9618 and the “Lysyl oxidase family activity in conditioned media” value ([2]; 15 nM PXS) was 58.7665 and 150.554 and 90.679. For the same compound, the “Lysyl oxidase family activity in conditioned media” value ([2]; 30 nM PXS) was 57.8418 and 141.264 and 86.9464, the “Lysyl oxidase family activity in conditioned media” value ([2]; 150 nM PXS) was 55.9673 and 128.167 and 75.6773 and the “Lysyl oxidase family activity in conditioned media” value ([2]; 300 nM PXS) was 56.4831 and 97.2065 and 57.86. The “Lysyl oxidase family activity in conditioned media” value ([2]; 1.5 uM PXS) was 35.0772 and 43.4748 and 18.796, the “Lysyl oxidase family activity in conditioned media” value ([2]; 3 uM PXS) was 22.4023 and 21.6286 and 3.933 and the “Lysyl oxidase family activity in conditioned media” value ([2]; 15 uM PXS) was -2.759 and 11.8534 and -9.095. For the same compound, the “Lysyl oxidase family activity in conditioned media” value ([2]; 30 uM PXS) was -2.098 and 9.262 and -6.1538, the depth of invasion (KPC CCs; PXS-5505 30 µM) was “no significant difference in depth of invasion” and the “invasion into the organotypic matrices by CCs” value (KPC CCs; PXS-5505 30 µM) was “decrease in invasion”. For the same compound, the “number of cancer cells invaded per FOV” value (KPC CCs; determined by H&E) was 0.4375 and 0.5681 and 0.5386 and 0.8338 and 0.9078 and 0.6013 and 0.6222 and 0.3197 and 1.014 and the “number of cancer cells invaded per FOV” value (KPC CCs; determined by PanCK) was 0.6309 and 0.4054 and 0.3571 and 0.6771 and 0.6115 and 1.118 and 0.7087 and 0.8827 and 0.7763.
